Test results reported in paper PMC12287680, “Efficient Acyloxymethylation of Psilocin and Other Tryptamines Yielding ACOM Prodrugs for Psychedelic‐Assisted Therapy” (Archiv Der Pharmazie, 2025).
Where a name gives a salt, the structure may show the parent alone. Marks after values point to notes of the source that are not given here.

What was measured:
[1] = set-up: method as in earlier work; conditions: rats, ref 10b, cited from earlier work
[2] = Passive membrane permeability across an artificial membrane; assay type: in vitro ADME; conditions: for Papp: PAMPA, pH 7.4, read-out: Passive membrane permeability Pe
Text: As expected, all tested prodrugs have a high propensity for passive passage across an artificial membrane at pH 7.4 (≥ 8·10^−6 cm/s). […] The loss of the intramolecular hydrogen bond between the phenolic hydroxy group and the tertiary amino group upon O‐substitution appears to decrease the membrane permeability of the prodrugs in comparison to the parent drug. This effect is apparently not entirely compensated by the ACOM promoiety, which in itself is not completely apolar due to the acetal and ester oxygens. The intramolecular hydrogen bond may reduce the polarity of 4‐hydroxytryptamines by introducing a conformational restraint and thereby favoring conformations with a smaller polar surface area and a lower dipole moment and by decreasing hydrogen bonding to the aqueous solvent. In addition, the intramolecular hydrogen bond in 4‐hydroxytryptamines lowers the pK a of the amine and therefore shifts the protonation equilibrium toward the neutral species. The higher proportion of the uncharged species in 4‐hydroxytryptamines compared with their O‐substituted congeners further increases the difference in passive membrane permeability.

[3] = Half-lives in human saliva at 37°C; assay type: in vitro ADME; conditions: fresh resting whole human saliva, mean of three measurements with fresh samples of three individuals, 5·10^−5 M, read-out: Half‐lives t 1/2 at 37°C in human Saliva
Method: Finally, we studied the stability of the compounds in human saliva. […] In line with the literature, the stability of a given compound in human saliva varied considerably between subjects (Figure 7).
(§1) The kinetic studies were carried out by following the loss of substrate under the indicated conditions using HPLC‐UV. Pooled human plasma was obtained commercially (Biowest, France), while human saliva was freshly collected with the written informed consent of the saliva donors. In a typical run, the reaction was initiated by adding the prewarmed medium to a prewarmed aliquot of a 5 mM stock solution of the analyte in DMSO, resulting in a final concentration of 5·10^−5 M. A volume of 100 µL samples of the reaction mixture were taken at suitable intervals, and the reaction was either stopped by cooling to –20°C (PBS) or by protein precipitation using 2:1 (v/v) acetonitrile (saliva, plasma). Precipitates were removed by centrifugation and decantation prior to HPLC analysis. Pseudo‐first‐order rate constants for the observed degradation were determined from the slope of linear plots of ln(peak area) versus time. More detailed descriptions are provided in the Supporting Information.

[4] = Half-lives in PBS at 80°C (nonspecific hydrolysis); assay type: physicochemical; conditions: for half-life at 50 µM: pH 7.3, PBS, 80°C, 5·10^−5 M, footnote: no replicates; for stability in buffer compared with plasma: buffer at 80°C versus plasma at 37°C, same concentration
Method: As a measure of the drug release rate in the systemic blood circulation, we determined the half‐lives of 15, 16, and 23–26 in pooled human plasma. […] This illustrates that the drug release kinetics in human plasma are highly dependent upon the chosen acyl residue, which allows for tailoring the prodrug's pharmacokinetic profile to the therapeutic requirements. To assess the contribution of nonspecific hydrolysis to the observed kinetics, we incubated the prodrugs at the same concentration in the buffer used to dilute the plasma samples.
as §1

[5] = Half-lives in pooled human plasma at 37°C; assay type: in vitro ADME; conditions: for half-lives t1/2 in human plasma (v/v) at 37°C: 100% plasma, [prodrug]0 =50 µM
Method: As a measure of the drug release rate in the systemic blood circulation, we determined the half‐lives of 15, 16, and 23–26 in pooled human plasma. […] To assess the contribution of nonspecific hydrolysis to the observed kinetics, we incubated the prodrugs at the same concentration in the buffer used to dilute the plasma samples.
as §1
^a The release kinetics of the prodrugs were evaluated in vitro in analogy to the precedent literature.^[1] […] Pooled human blood plasma (Biowest, France) and sterile Dulbecco’s phosphate buffered saline (PBS) pH 7.3 (Sigma-Aldrich, Germany) were used for all experiments. In short, prewarmed (37°C) human plasma and prewarmed (37°C) prodrug (5 mM stock in DMSO) were gently mixed, which afforded a 50 µM solution of the prodrug in human plasma. Incubation was continued at 37°C, and 100 µL samples of the mixture were taken at appropriate time intervals. The samples were immediately quenched with acetonitrile (2:1), centrifuged, decanted, and analyzed via HPLC-UV. Half-lives were determined assuming first-order kinetics; specific values are the mean of triplicates ± standard deviation. For more details, please refer to the SI.

[6] = in DMSO; cited from earlier work
[7] = pH 7.4; cited from earlier work
[8] = cited from earlier work
[9] = 100% (undiluted) pooled human plasma, 37°C, 100% pooled human plasma, 5·10^−5 M
[10] = 10% pooled human plasma in PBS, pH 7.3, 37°C, 10% pooled human plasma diluted with PBS, 5·10^−5 M
[11] = diluted pooled human plasma, pH 7.3, even in diluted human plasma, read-out: half‐lives in human plasma

SMILES	Papp [2] [×10⁻⁶ cm/s]	Passive membrane permeability R (%) (mass retention) ([2]; pH 7.4)	half-life at 50 µM [3] [min]	half-life at 50 µM [4] [min]	half-life at 50 µM [5, 9] [min]	half-lives t1/2 in human plasma (v/v) at 37°C ([5]; 37°C)	drug release in undiluted human plasma during the observation period ([5]; 37°C)	other results
CN(C)CCc1c[nH]c2cccc(OCOC(=O)C(C)(C)C)c12 [Compound 2]								detected systemic psilocin level ([1]; peroral dosing): relatively low; prodrug behaviour upon peroral dosing [1]: acts as a psilocin prodrug
CCN(C)CCc1c[nH]c2cccc(OCOC(=O)C(C)(C)C)c12 [Compound 23]	9.7 ± 0.6	2%	< 20	534 ± 12	> 240	> 240 (100%) min	Neither the N‐carbamates 15 and 16 nor the sterically hindered pivaloyloxymethyl ethers 23 and 25 showed significant drug release	
CN(C)CCc1c[nH]c2cccc(OCOC(=O)C(C)(C)C)c12 [Compound 25]	9.1 ± 0.5	4%	< 20	458 ± 23	> 240	> 240 (100%)^b min	Neither the N‐carbamates 15 and 16 nor the sterically hindered pivaloyloxymethyl ethers 23 and 25 showed significant drug release	chemical and plasma stability, in words ([5]; in vitro): high chemical and plasma stability
CC(=O)Oc1ccccc1C(=O)O [ASA, Acetylsalicylic acid, reference compound]			> 60	27.9 ± 0.3				
CCN(C)CCc1c[nH]c2cccc(O)c12 [Compound 30, reference compound]		29%						Passive membrane permeability Pe ([2]; pH 7.4): 11 ± 1 10^−6cm/s; mass retention (R%), in words ([2]; pH 7.4): remarkably high; membrane permeability, ranking ([2]; pH 7.4, compared with the prodrugs): highest membrane permeability
CNS(=O)(=O)Cc1ccc2[nH]cc(CCN(C)C)c2c1 [sumatriptan]								sulfonamide pKa [6]: ~ 17.5; logD7.4 [7]: −1.3; logP [8]: 0.93
CN(C)CCc1cn(C(=O)OCc2ccccc2)c2cccc(O)c12 [Compound 16, 1‐Benzyloxycarbonyl‐4‐Hydroxy‐N,N‐Dimethyltryptamine]				184 ± 5	> 5700	> 5700 (100%) min	Neither the N‐carbamates 15 and 16 nor the sterically hindered pivaloyloxymethyl ethers 23 and 25 showed significant drug release	
CCCC(=O)OCOc1cccc2[nH]cc(CCN(C)C)c12 [Compound 26, 4‐n‐Butanoyloxymethyloxy‐N,N‐Dimethyltryptammonium Fumarate]	8.1 ± 0.8	7 ^e %	< 10	58.6 ± 3.5	0.48 ± 0.1			stability in buffer compared with plasma [4]: significantly more stable in buffer than in plasma; half-life at 50 µM [5, 10]: 3.5 ± 0.8 min; half-life at 50 µM [5, 11]: < 5 min
CCCC(=O)OCOc1cccc2[nH]cc(CCN(C)CC)c12 [Compound 24]	8 ± 0.3	6%	< 10	73.3 ± 1.2				stability in buffer compared with plasma [4]: significantly more stable in buffer than in plasma; half-life at 50 µM [5, 10]: 4.2 ± 0.1 min; half-life at 50 µM [5, 11]: < 5 min
CCN(C)CCc1cn(C(=O)OCc2ccccc2)c2cccc(O)c12 [Compound 15]				136 ± 4	> 5700	> 5700 (100%) min	Neither the N‐carbamates 15 and 16 nor the sterically hindered pivaloyloxymethyl ethers 23 and 25 showed significant drug release	
CN(C)CCc1c[nH]c2cccc(OP(=O)(O)O)c12 [psilocybin]								logD7.4 [7]: −0.89
